Test system: single cells
Assay: chemosensitivity assay on single cells (live-cell imaging, FIG. 10)
Type: cell-based
Conditions: single cell imaged before, upon addition, and 2 minutes and 5 minutes after Y-27632 treatment
Text: FIG. 10 depicts a chemosensitivity assay conducted on single cells. Target cell subpopulations can be used for personalized medicine. In the instance of CTCs and CSCs, cells can be used for chemosensitivity testing on whereby standard and exploratory chemotherapy regimens can be tested on cultured CTCs and determination of the effects of chemotherapy drugs on CTCs, including cell viability and cell division rates measurement to determine the efficacy of a given drug. An example of how a chemosensitivity assay can be applied is depicted in FIG. 10. […] In this example, Rho Kinase inhibitor, Y-27632 was used (Ishizaki et al. 2000 Pharmacological Properties of Y-27632, a specific inhibitor of rho-associated kinases. Mol Pharmacol. 57(5):976-83). […] The plasma membrane of the cell retracts upon drug treatment after 2 minutes 1015 and 5 minutes 1020.

Compound: C[C@@H](N)[C@H]1CC[C@H](C(=O)Nc2ccncc2)CC1 [Y-27632]
- effect on cell adhesions and plasma membrane of a single cell upon drug treatment: loss of adhesions and retraction of the plasma membrane

Source: patent US20180267025A1, “CANCER ANALYSIS SYSTEM” (Xcell Biosciences, Inc., priority 2013, published 2018)
